Active and inactive are the calls of the source. No cut-off for these calls is given here.
How the values were obtained:
Mus musculus [1] = test: Toxicity in BALB/c nude mouse xenografted with human NCI-H460 cells assessed as hematuria at 40 mg/kg/day administered qd; format: organism-based; details: in vivo
Mus musculus [2] = test: Toxicity in BALB/c nude mouse xenografted with human NCI-H460 cells assessed as bloody stool at 40 mg/kg/day administered qd; format: organism-based; details: in vivo
Mus musculus [3] = test: Toxicity in BALB/c nude mouse xenografted with human NCI-H460 cells assessed as severe weight loss at 40 mg/kg/day administered qd; format: organism-based; details: in vivo
Aorta [4] = test: Antiangiogenic activity in Sprague-Dawley rat aortic ring at 0.2 ug/ml after 6 days by inverted microscopic analysis; format: functional, tissue-based
Aorta [5] = test: Inhibition of micrangium generation in Sprague-Dawley rat aortic ring at 0.2 ug/ml after 6 days by inverted microscopic analysis; format: functional, tissue-based
NCI-H460 [6] = test: Antitumor activity against human NCI-H460 cells xenografted in BALB/c nude mouse assessed as tumor growth inhibition at 40 mg/kg/day administered qd measured up to day 21 relative to control; format: functional
HT-29 = test: Antitumor activity against human HT-29 cells xenografted in BALB/c nude mouse assessed as tumor growth inhibition at 80 mg/kg/day administered qd measured up to day 21 relative to control; format: functional
Mus musculus [7] = test: Toxicity in BALB/c nude mouse xenografted with human NCI-H460 cells assessed as weakness at 40 mg/kg/day administered qd; format: organism-based; details: in vivo
Mus musculus [8] = test: Toxicity in BALB/c nude mouse xenografted with human NCI-H460 cells assessed as lethargic behavior at 40 mg/kg/day administered qd; format: organism-based; details: in vivo
Mus musculus [9] = test: Toxicity in BALB/c nude mouse xenografted with human NCI-H460 cells assessed as severe weight loss at 40 mg/kg/day administered qd measured after 9 days; format: organism-based; details: in vivo, 216 h
Mus musculus [10] = test: Toxicity in BALB/c nude mouse xenografted with human NCI-H460 cells assessed as bloody stool at 40 mg/kg/day administered qd measured after 9 days; format: organism-based; details: in vivo, 216 h
Mus musculus [11] = test: Toxicity in BALB/c nude mouse xenografted with human NCI-H460 cells assessed as mortality at 40 mg/kg/day administered qd measured on day 15; format: organism-based; details: in vivo
Mus musculus [12] = test: Toxicity in BALB/c nude mouse xenografted with human HT-29 cells assessed as severe weight loss at 80 mg/kg/day administered qd measured after 12 to 15 days; format: organism-based; details: in vivo
Mus musculus [13] = test: Toxicity in BALB/c nude mouse xenografted with human HT-29 cells assessed as mortality at 80 mg/kg/day administered qd measured on day 21; format: organism-based; details: in vivo
[14] = Antiproliferative activity against human LO2 cells after 72 hrs by MTT assay; format: cell-based; details: L02, 72 h
Mus musculus [15] = test: Toxicity in BALB/c nude mouse xenografted with human HT-29 cells assessed as change in body weight at 80 mg/kg/day administered qd relative to control; format: organism-based; details: in vivo
Mus musculus [16] = test: Toxicity in BALB/c nude mouse xenografted with human NCI-H460 cells assessed as change in body weight at 40 mg/kg/day administered qd relative to control; format: organism-based; details: in vivo
[17] = Antiproliferative activity against human MV411 cells after 48 hrs by MTT assay; format: functional, cell-based; details: MV4-11, 48 h
TT = test: Antiproliferative activity against human TT cells pretreated for 72 hrs followed by compound-washout measured after 72 hrs by MTT assay; format: functional, cell-based
NCI-H460 [18] = test: Antiproliferative activity against human NCI-H460 cells after 72 hrs by MTT assay; format: functional, cell-based; details: NCI-H460, 72 h
NCI-H526 = test: Antiproliferative activity against human NCI-H526 cells after 72 hrs by MTT assay; format: functional, cell-based; details: NCI-H526, 72 h
[19] = Antiproliferative activity against human NCI-H3122 cells after 72 hrs by MTT assay; format: functional, cell-based; details: NCI-H3122, 72 h
[20] = Antiproliferative activity against human Bel7402 cells after 72 hrs by MTT assay; format: functional, cell-based; details: Bel-7402, 72 h
[21] = Antiproliferative activity against human HK2 cells after 72 hrs by MTT assay; format: cell-based; details: HK-2, 72 h
Mus musculus [22] = test: Toxicity in BALB/c nude mouse xenografted with human HT-29 cells assessed as hematuria at 80 mg/kg/day administered qd measured up to day 21; format: organism-based; details: in vivo
Mus musculus [23] = test: Toxicity in BALB/c nude mouse xenografted with human HT-29 cells assessed as bloody stool at 80 mg/kg/day administered qd measured up to day 21; format: organism-based; details: in vivo
Mus musculus [24] = test: Toxicity in BALB/c nude mouse xenografted with human HT-29 cells assessed as severe weight loss at 80 mg/kg/day administered qd measured after 9 days; format: organism-based; details: in vivo, 216 h
Mus musculus [25] = test: Toxicity in BALB/c nude mouse xenografted with human HT-29 cells assessed as mortality at 80 mg/kg/day administered qd measured on day 15; format: organism-based; details: in vivo
Mus musculus [26] = test: Toxicity in BALB/c nude mouse xenografted with human HT-29 cells assessed as weakness at 80 mg/kg/day administered qd; format: organism-based; details: in vivo
Mus musculus [27] = test: Toxicity in BALB/c nude mouse xenografted with human HT-29 cells assessed as lethargic behavior at 80 mg/kg/day administered qd; format: organism-based; details: in vivo
Mus musculus [28] = test: Toxicity in BALB/c nude mouse xenografted with human HT-29 cells assessed as development of diarrhea at 80 mg/kg/day administered qd; format: organism-based; details: in vivo
Mus musculus [29] = test: Toxicity in BALB/c nude mouse xenografted with human HT-29 cells assessed as severe weight loss at 80 mg/kg/day administered qd measured after 6 days; format: organism-based; details: in vivo, 144 h
Mus musculus [30] = test: Toxicity in BALB/c nude mouse xenografted with human HT-29 cells assessed as weight loss at 80 mg/kg/day administered qd measured up to day 21; format: organism-based; details: in vivo
Mus musculus [31] = test: Toxicity in BALB/c nude mouse xenografted with human HT-29 cells assessed as severe weight loss at 80 mg/kg/day administered qd; format: organism-based; details: in vivo
Mus musculus [32] = test: Toxicity in BALB/c nude mouse xenografted with human HT-29 cells assessed as mortality at 80 mg/kg/day administered qd measured after 6 days; format: organism-based; details: in vivo, 144 h
Mus musculus [33] = test: Toxicity in BALB/c nude mouse xenografted with human HT-29 cells assessed as severe weight loss at 80 mg/kg/day administered qd measured after 3 days; format: organism-based; details: in vivo, 72 h
Mus musculus [34] = test: Toxicity in BALB/c nude mouse xenografted with human HT-29 cells assessed as mortality at 80 mg/kg/day administered qd measured on day 12; format: organism-based; details: in vivo

Structure (SMILES): Cc1[nH]c(/C=C2\C(=O)Nc3ccc(F)cc32)c(C)c1NC(=O)CCN1CCCC1
- Activity (Mus musculus [1]): Non-toxic
- Activity (Mus musculus [2]): Non-toxic
- Activity (Mus musculus [3]): Non-toxic
- inhibition (Aorta [4]): Active
- inhibition (Aorta [5]): Active
- TGI (NCI-H460 [6]): Active

Structure (SMILES): Cc1[nH]c(/C=C2\C(=O)Nc3ccc(F)cc32)c(C)c1NC(=O)CCCN(C)C
- inhibition (Aorta [4]): Active
- inhibition (Aorta [5]): Active
- Activity (HT-29): Active

Structure (SMILES): Cc1[nH]c(/C=C2\C(=O)Nc3ccc(F)cc32)c(C)c1NC(=O)CN1CCN(C)CC1
- Activity (Mus musculus [7]): Toxic
- Activity (Mus musculus [8]): Toxic
- Activity (Mus musculus [9]): Toxic
- Activity (Mus musculus [10]): Toxic
- Activity (Mus musculus [11]): Toxic
- inhibition (Aorta [4]): Active
- inhibition (Aorta [5]): Active

Structure (SMILES): Cc1[nH]c(/C=C2\C(=O)Nc3ccc(F)cc32)c(C)c1NC(=O)CCN(C)C
- inhibition (Aorta [4]): Active
- inhibition (Aorta [5]): Active
- Activity (HT-29): Active

Structure (SMILES): Cc1[nH]c(/C=C2\C(=O)Nc3ccc(F)cc32)c(C)c1C(=O)N1CCN(CCO)CC1
- inhibition (Aorta [4]): Active
- inhibition (Aorta [5]): Active
- Activity (HT-29): inactive

Structure (SMILES): CCN(CC)CCNC(=O)c1c(C)[nH]c(/C=C2\C(=O)Nc3ccc(F)cc32)c1C [SUNITINIB]
- Activity (Mus musculus [12]): Toxic
- Activity (Mus musculus [13]): Toxic
- Activity (HT-29): Active
- Activity (HT-29; record 2): 88.9%
- IC50 [14]: 19.9 µM
- TGI (NCI-H460 [6]): Active
- Activity (Mus musculus [15]): -24.1%
- Activity (Mus musculus [16]): 12.3%
- IC50 [17]: 0.003 µM
- IC50 (TT): 0.04 µM
- IC50 (NCI-H460 [18]): 4.31 µM
- IC50 (NCI-H526): 1.01 µM
- IC50 [19]: 0.83 µM
- IC50 [20]: 2.67 µM
- IC50 [21]: 5.85 µM

Structure (SMILES): Cc1[nH]c(/C=C2\C(=O)Nc3ccc(F)cc32)c(C)c1NC(=O)CCN1CCOCC1
- Activity (Mus musculus [22]): Non-toxic
- Activity (Mus musculus [23]): Non-toxic
- inhibition (Aorta [4]): Active
- inhibition (Aorta [5]): Active
- Activity (HT-29): inactive

Structure (SMILES): CCN(CC)C1CCN(C(=O)c2c(C)[nH]c(/C=C3\C(=O)Nc4ccc(F)cc43)c2C)CC1
- Activity (Mus musculus [24]): Toxic
- Activity (Mus musculus [25]): Toxic
- inhibition (Aorta [4]): Active
- inhibition (Aorta [5]): Active
- Activity (HT-29): Active
- Activity (Mus musculus [26]): Toxic
- Activity (Mus musculus [27]): Toxic
- Activity (Mus musculus [28]): Toxic
- Activity (Mus musculus [29]): Toxic

Structure (SMILES): Cc1[nH]c(/C=C2\C(=O)Nc3ccc(F)cc32)c(C)c1C(=O)N1CCN(C)CC1
- Activity (Mus musculus [22]): Non-toxic
- Activity (Mus musculus [23]): Non-toxic
- Activity (Mus musculus [30]): Non-toxic
- inhibition (Aorta [4]): Active
- inhibition (Aorta [5]): Active
- Activity (HT-29): Active

Structure (SMILES): Cc1[nH]c(/C=C2\C(=O)Nc3ccc(F)cc32)c(C)c1NC(=O)CN1CCCCC1
- Activity (Mus musculus [1]): Non-toxic
- Activity (Mus musculus [2]): Non-toxic
- Activity (Mus musculus [3]): Non-toxic
- inhibition (Aorta [4]): Active
- inhibition (Aorta [5]): Active
- TGI (NCI-H460 [6]): inactive

Structure (SMILES): CCN1CCN(C(=O)c2c(C)[nH]c(/C=C3\C(=O)Nc4ccc(F)cc43)c2C)CC1
- Activity (Mus musculus [22]): Non-toxic
- Activity (Mus musculus [23]): Non-toxic
- Activity (Mus musculus [30]): Non-toxic
- inhibition (Aorta [4]): Active
- inhibition (Aorta [5]): Active
- Activity (HT-29): Active

Structure (SMILES): CCN(CC)CCC(=O)Nc1c(C)[nH]c(/C=C2\C(=O)Nc3ccc(Br)cc32)c1C
- Activity (Mus musculus [31]): Toxic
- inhibition (Aorta [4]): Active
- inhibition (Aorta [5]): Active
- Activity (HT-29): Active

Structure (SMILES): CCN(CC)CCC(=O)Nc1c(C)[nH]c(/C=C2\C(=O)Nc3ccc(F)cc32)c1C
- Activity (Mus musculus [25]): Toxic
- inhibition (Aorta [4]): Active
- inhibition (Aorta [5]): Active
- Activity (HT-29): Active
- Activity (Mus musculus [29]): Toxic

Structure (SMILES): Cc1[nH]c(/C=C2\C(=O)Nc3ccc(F)cc32)c(C)c1NC(=O)/C=C/CN(C)C
- inhibition (Aorta [4]): Active
- inhibition (Aorta [5]): Active
- Activity (HT-29): inactive

Structure (SMILES): Cc1[nH]c(/C=C2\C(=O)Nc3ccc(F)cc32)c(C)c1C(=O)N1CCC(N(C)C)CC1
- inhibition (Aorta [4]): Active
- inhibition (Aorta [5]): Active
- Activity (HT-29): Active
- Activity (Mus musculus [26]): Toxic
- Activity (Mus musculus [27]): Toxic
- Activity (Mus musculus [28]): Toxic
- Activity (Mus musculus [29]): Toxic
- Activity (Mus musculus [32]): Toxic

Structure (SMILES): Cc1[nH]c(/C=C2\C(=O)Nc3ccc(F)cc32)c(C)c1NC(=O)CCN1CCCCC1
- Activity (Mus musculus [22]): Non-toxic
- Activity (Mus musculus [23]): Non-toxic
- Activity (Mus musculus [31]): Non-toxic
- Activity (Mus musculus [1]): Non-toxic
- Activity (Mus musculus [2]): Non-toxic
- Activity (Mus musculus [3]): Non-toxic
- inhibition (Aorta [4]): Active
- inhibition (Aorta [5]): Active
- Activity (HT-29): Active
- TGI (NCI-H460 [6]): Active

Structure (SMILES): CCN1CCN(CCC(=O)Nc2c(C)[nH]c(/C=C3\C(=O)Nc4ccc(F)cc43)c2C)CC1
- Activity (Mus musculus [22]): Non-toxic
- Activity (Mus musculus [23]): Non-toxic
- Activity (Mus musculus [31]): Non-toxic
- Activity (Mus musculus [1]): Non-toxic
- Activity (Mus musculus [2]): Non-toxic
- Activity (Mus musculus [3]): Non-toxic
- inhibition (Aorta [4]): Active
- inhibition (Aorta [5]): Active
- Activity (HT-29): Active
- TGI (NCI-H460 [6]): Active

Structure (SMILES): CCN(CC)CCC(=O)Nc1c(C)[nH]c(/C=C2\C(=O)Nc3ccc(Cl)cc32)c1C
- Activity (Mus musculus [33]): Toxic
- Activity (Mus musculus [34]): Toxic
- inhibition (Aorta [4]): Active
- inhibition (Aorta [5]): Active
